Converted amounts (≈) assume the structure as drawn. Positions of bridges follow the written chain, without caps; N, C: chain ends. Non-standard residues stand in square brackets, D forms with d. Residues, ends and D or L forms follow the SMILES beside them. *: point of attachment. Ileψ(thiazoline)Cys = CC[C@H](C)[C@H](N)C1=N[C@H](C(=O)*)CS1; dOrn = NCCC[C@@H](N)C(=O)O
Key:
Type in all cases: functional
Staphylococcus aureus [1] = assay: Antibacterial activity against homo-Methicillin-resistant and tetracycline-resistant Staphylococcus aureus H14 harboring vraS S329L mutant gene by Etest method
Staphylococcus aureus [2] = assay: Antibacterial activity against methicillin-susceptible, tetracycline-resistant and chloramphenicol-resistant Staphylococcus aureus deltaIP-KVR by Etest method
Staphylococcus aureus [3] = assay: Antibacterial activity against homo-Methicillin-resistant and tetracycline-resistant Staphylococcus aureus deltaIP::vraSH14 harboring vraSH14 S329L mutant gene by Etest method
Staphylococcus aureus [4] = assay: Antibacterial activity against hetero-Methicillin-resistant and tetracycline-resistant Staphylococcus aureus deltaIP by Etest method
Staphylococcus aureus [5] = assay: Antibacterial activity against methicillin-susceptible, tetracycline-resistant and chloramphenicol-resistant Staphylococcus aureus H14-KVR by Etest method
Staphylococcus aureus [6] = assay: Antibacterial activity against hetero-Methicillin-resistant and tetracycline-resistant and rifampicin-resistant Staphylococcus aureus deltaIP-rifR harboring RpoB H481Y mutant gene by Etest method
Staphylococcus aureus [7] = assay: Antibacterial activity against hetero-vancomycin-intermediate Staphylococcus aureus Mu3 by Etest method
Staphylococcus aureus [8] = assay: Antibacterial activity against homo-Methicillin-resistant and tetracycline-resistant and rifampicin-resistant Staphylococcus aureus deltaIP-rifR::vraSH14 by Etest method

Row | Compound | MIC (Staphylococcus aureus [1]) [µg/mL] | MIC (Staphylococcus aureus [2]) [µg/mL] | MIC (Staphylococcus aureus [3]) [µg/mL] | MIC (Staphylococcus aureus [4]) [µg/mL] | MIC (Staphylococcus aureus [5]) [µg/mL] | MIC (Staphylococcus aureus [6]) [µg/mL] | MIC (Staphylococcus aureus [7]) [µg/mL] | MIC (Staphylococcus aureus [8]) [µg/mL]
1 | C[C@@H](O)[C@H]1C(=O)N2C(C(=O)O)=C(SCCNC=N)C[C@H]12 [IMIPENEM ANHYDROUS] | > 32 | 0.19 (≈ 0.635 µM) | > 32 | 0.75 (≈ 2.51 µM) | 0.19 (≈ 0.635 µM) | 1 (≈ 3.34 µM) | > 32 | > 32
2 | CN[C@H](CC(C)C)C(=O)N[C@H]1C(=O)N[C@@H](CC(N)=O)C(=O)N[C@H]2C(=O)N[C@H]3C(=O)N[C@H](C(=O)N[C@H](C(=O)O)c4cc(O)cc(O)c4-c4cc3ccc4O)[C@H](O)c3ccc(c(Cl)c3)Oc3cc2cc(c3O[C@@H]2O[C@H](CO)[C@@H](O)[C@H](O)[C@H]2O[C@H]2C[C@](C)(N)[C@H](O)[C@H](C)O2)Oc2ccc(cc2Cl)[C@H]1O [VANCOMYCIN] |  | 0.75 (≈ 0.518 µM) |  |  | 0.75 (≈ 0.518 µM) |  | 3 (≈ 2.07 µM) | 3 (≈ 2.07 µM)
3 | CO[C@H]1/C=C/O[C@@]2(C)Oc3c(C)c(O)c4c(O)c(c(/C=N/N5CCN(C)CC5)c(O)c4c3C2=O)NC(=O)/C(C)=C\C=C\[C@H](C)[C@H](O)[C@@H](C)[C@@H](O)[C@@H](C)[C@H](OC(C)=O)[C@@H]1C [RIFAMPIN] | 0.004 (≈ 0.00486 µM) | 0.004 (≈ 0.00486 µM) | 0.004 (≈ 0.00486 µM) | 0.004 (≈ 0.00486 µM) | 0.004 (≈ 0.00486 µM) | > 32 | 0.006 (≈ 0.00729 µM) | > 32
4 | CC[C@H](C)[C@H](N)C1=N[C@H](C(=O)N[C@@H](CC(C)C)C(=O)N[C@H](CCC(=O)O)C(=O)N[C@H](C(=O)N[C@H]2CCCCNC(=O)[C@H](CC(N)=O)NC(=O)[C@@H](CC(=O)O)NC(=O)[C@H](Cc3cnc[nH]3)NC(=O)[C@@H](Cc3ccccc3)NC(=O)[C@H]([C@@H](C)CC)NC(=O)[C@@H](CCCN)NC2=O)[C@@H](C)CC)CS1 [BACITRACIN] ({Ileψ(thiazoline)Cys}-L[dE]IK[dOrn]I[dF]H[dD]N; lactam 4-C) | 96 (≈ 67.5 µM) | 4 (≈ 2.81 µM) | 96 (≈ 67.5 µM) | 32 (≈ 22.5 µM) | 4 (≈ 2.81 µM) | 24 (≈ 16.9 µM) | 256 (≈ 180 µM) | 96 (≈ 67.5 µM)
5 | C[C@@H]1O[C@@H]1P(=O)(O)O [FOSFOMYCIN] | 96 (≈ 695 µM) | 0.38 (≈ 2.75 µM) | 96 (≈ 695 µM) | 1 (≈ 7.24 µM) | 0.38 (≈ 2.75 µM) | 1.5 (≈ 10.9 µM) | > 1020 | 96 (≈ 695 µM)
6 | Cc1onc(-c2ccccc2)c1C(=O)N[C@@H]1C(=O)N2[C@@H]1SC(C)(C)[C@@H]2C(=O)O [OXACILLIN] | > 256 | 1.5 (≈ 3.74 µM) | > 256 | 6 (≈ 14.9 µM) | 1.5 (≈ 3.74 µM) | 5 (≈ 12.5 µM) | > 256 | > 256
7 | GENTAMICIN | 0.75 | 0.75 | 0.75 | 0.75 | 0.75 | 1 | 384 | 1
8 | CCCCCCCCCC(=O)N[C@@H](Cc1c[nH]c2ccccc12)C(=O)N[C@H](CC(N)=O)C(=O)N[C@@H](CC(=O)O)C(=O)N[C@@H]1C(=O)NCC(=O)N[C@@H](CCCN)C(=O)N[C@@H](CC(=O)O)C(=O)N[C@H](C)C(=O)N[C@@H](CC(=O)O)C(=O)NCC(=O)N[C@H](CO)C(=O)N[C@@H]([C@H](C)CC(=O)O)C(=O)N[C@@H](CC(=O)c2ccccc2N)C(=O)O[C@@H]1C | 1.75 (≈ 1.08 µM) | 0.5 (≈ 0.309 µM) | 1.75 (≈ 1.08 µM) | 0.75 (≈ 0.463 µM) | 0.5 (≈ 0.309 µM) | 0.5 (≈ 0.309 µM) | 2 (≈ 1.23 µM) | 2 (≈ 1.23 µM)

From ChEMBL document CHEMBL1649526, “Selection of heterogeneous vancomycin-intermediate Staphylococcus aureus by imipenem” (2009)
